Laboratory results reported in patent publication US20240215584A1, “ARTICLE HAVING ANTIVIRAL PROPERTIES, ARTICLE HAVING ANTIMICROBIAL PROPERTIES, AND ARTICLE HAVING ANTIFUNGAL PROPERTIES” (NATIONAL INSTITUTE OF ADVANCED INDUSTRIAL SCIENCE AND …, priority 2021, published 2024).
Converted amounts (≈) assume the structure as drawn. Like-named read-outs stand apart in the source and are kept apart here.

Assays:
[1] = Residual amount on SUS substrate after ultrasonic cleaning in water; type: physicochemical; conditions: 125 μg/cm^2 applied on SUS substrate
Description: First, chlorhexidine was dissolved in acetone so as to be 1 mg/mL. […] Chlorhexidine gluconate was dissolved in acetone so as to be 1 mg/mL. […] Subsequently, the concentration of chlorhexidine and the concentration of chlorhexidine gluconate eluted in water were measured by UV-Vis (colorimetric method), and an amount of chlorhexidine and an amount of chlorhexidine gluconate remaining on the substrate were back-calculated from the concentration.

[2] = Calcein efflux rate, viral composition artificial membrane (liposomes); conditions: for Calcein Efflux Rate (%) Virus Composition Artificial Membrane: 30° C., 30 minutes
[3] = Calcein efflux rate, bacterial composition artificial membrane (liposomes); conditions: for Calcein Efflux Rate (%) Bacterial Composition Artificial Membrane: 30° C., 30 minutes
Candida ATCC12201 = assay: Minimum inhibitory concentration on fungi; type: cell-based; conditions: Candida ATCC12201, RPMI1640, 37 °C, 48 hours
Description: The bacteria were cultured in the RPMI1640 and added to each of the holes of the test plate at approximately 200 CFU/mL. The cultures were cultivated at 37 °C for 48 hours, and the growth of the bacteria was visually confirmed, and the minimum concentration without the growth of the bacteria was referred as MIC. Candida ATCC12201 was used as the fungi. […] The minimum inhibitory concentration (MIC) was measured against Candida.

[4] = system: sheep defibrillated blood (red blood cells); conditions: 30 min, pH 7.4
Description: 25 μL of sheep defibrillated blood, a Tyrode solution (NaCl 137 mM, KCl 2.7 mM, CaCl2) 1.0 mM, HEPES 10 mM (pH7.4)), and chlorhexidine gluconate or chlorhexidine solution were mixed. A mixture of 25 μL of sheep defibrillated blood and 975 μL of a Tyrode solution was used as a control, and a mixture of 25 μL of sheep defibrillated blood and 975 μL of purified water was used as a complete hemolysis. The mixtures were left standing at 37° C. for 30 minutes. Thereafter, the mixed liquid is centrifuged, and the supernatant is collected. Absorbance at 545 nm was measured. A hemolysis rate was calculated according to the following formula.

[5] = system: methicillin-sensitive Staphylococcus aureus 209P; assay: Minimum inhibitory concentration on bacteria; conditions: 20 h, read-out: minimum inhibitory concentration (MIC)
Description: (§1) First, 100 μL per hole of a 96-hole test plate was prepared using a Mueller Hinton medium (CAMHB) (and blood added as needed) supplemented with 20 mg/L of Ca^2+ and 10 mg/L of Mg^2+ to give a 2-fold dilution series. […] Each bacterium was cultured in CAMHB (blood added as needed) and added to each of the holes of the test plate at approximately 10000 CFU/mL. The cultures were cultivated at 37° C. for 20 hours, and growth of the bacteria was visually confirmed, and the lowest concentration without growth of the bacteria was defined as the minimum inhibitory concentration (MIC: Minimum Inhibitory Concentration).
(§2) As the bacteria, methicillin-sensitive Staphylococcus aureus 209P, methicillin-resistant Staphylococcus aureus N3115, methicillin-resistant Staphylococcus aureus OM584, vancomycin moderate resistant Staphylococcus aureus Mu50, Pseudomonas aeruginosa wild strain PAO1, Pseudomonas aeruginosa resistance gene quadruple disruption strain YM64, Fecaris ATCC29212, Vancomycin-resistant Fecaris ATCC51299, and Vancomycin-resistant Fecaris NCTC12201 were used.

[6] = system: methicillin-resistant Staphylococcus aureus N3115; assay: Minimum inhibitory concentration on bacteria; conditions: 20 h, read-out: minimum inhibitory concentration (MIC)
Description: as §1, §2

[7] = system: methicillin-resistant Staphylococcus aureus OM584; assay: Minimum inhibitory concentration on bacteria; conditions: 20 h, read-out: minimum inhibitory concentration (MIC)
Description: (§3) First, a method for measuring the minimum inhibitory concentration on the bacteria will be described. First, 100 μL per hole of a 96-hole test plate was prepared using a Mueller Hinton medium (CAMHB) (and blood added as needed) supplemented with 20 mg/L of Ca^2+ and 10 mg/L of Mg^2+ to give a 2-fold dilution series. […] Each bacterium was cultured in CAMHB (blood added as needed) and added to each of the holes of the test plate at approximately 10000 CFU/mL. The cultures were cultivated at 37° C. for 20 hours, and growth of the bacteria was visually confirmed, and the lowest concentration without growth of the bacteria was defined as the minimum inhibitory concentration (MIC: Minimum Inhibitory Concentration).
as §2
(§4) Minimum inhibitory concentrations (MIC) were measured against drug-sensitive bacteria and drug-resistant bacteria.

[8] = system: vancomycin moderate resistant Staphylococcus aureus Mu50; assay: Minimum inhibitory concentration on bacteria; conditions: 20 h, read-out: minimum inhibitory concentration (MIC)
Description: as §3, §2, §4

[9] = system: Pseudomonas aeruginosa wild strain PAO1; assay: Minimum inhibitory concentration on bacteria; conditions: PAO1, 20 h, read-out: minimum inhibitory concentration (MIC)
Fecaris ATCC29212 = assay: Minimum inhibitory concentration on bacteria; conditions: 20 h, read-out: minimum inhibitory concentration (MIC)
Description: as §3, §2, §4

[10] = system: Vancomycin-resistant Fecaris ATCC51299; assay: Minimum inhibitory concentration on bacteria; conditions: 20 h, read-out: minimum inhibitory concentration (MIC)
Description: as §3, §2, §4

[11] = system: Vancomycin-resistant Fecaris NCTC12201; assay: Minimum inhibitory concentration on bacteria; conditions: 20 h, read-out: minimum inhibitory concentration (MIC)
Description: as §1, §2

[12] = 2 minutes ultrasonic cleaning in 60 ml of water at 25° C.
[13] = 10 minutes ultrasonic cleaning in 60 ml of water at 25° C.

Structure (SMILES) | residual amount on substrate [1, 12] [μg/cm^2] | residual amount on substrate [1, 13] | MIC (Candida ATCC12201) [µg/mL] | MIC [5] [µg/mL] | MIC [6] [µg/mL] | MIC [7] [µg/mL] | MIC [8] [µg/mL] | MIC [9] [µg/mL] | MIC (Fecaris ATCC29212) [µg/mL] | MIC [10] [µg/mL] | MIC [11] [µg/mL] | further results
[H]/N=C(\N/C(=N/[H])NCCCCCCNC(=N)NC(=N)Nc1ccc(Cl)cc1)Nc1ccc(Cl)cc1 [chlorhexidine] | 45.4 | 43.0 μg/cm^2 | 2 (≈ 3.96 µM) | 0.5 (≈ 0.989 µM) | 1 (≈ 1.98 µM) | 4 (≈ 7.91 µM) | 2 (≈ 3.96 µM) | 16 (≈ 31.7 µM) | 2 (≈ 3.96 µM) | 4 (≈ 7.91 µM) | 4 (≈ 7.91 µM) | Calcein Efflux Rate (%) Virus Composition Artificial Membrane ([2]; 1 μM (0.51 μg/mL)): 6.5%; Calcein Efflux Rate (%) Virus Composition Artificial Membrane ([2]; 2 μM (1.01 μg/mL)): 15.9%; Calcein Efflux Rate (%) Virus Composition Artificial Membrane ([2]; 4 μM (2.02 μg/mL)): 39.8%; Calcein Efflux Rate (%) Virus Composition Artificial Membrane ([2]; 8 μM (4.04 μg/mL)): 68.5%; Calcein Efflux Rate (%) Virus Composition Artificial Membrane ([2]; 16 μM (8.09 μg/mL)): 85.7%; Calcein Efflux Rate (%) Virus Composition Artificial Membrane ([2]; 32 μM (16.17 μg/mL)): 91.6%; Calcein Efflux Rate (%) Virus Composition Artificial Membrane ([2]; 64 μM (32.35 μg/mL)): 108.3%; Calcein Efflux Rate (%) Virus Composition Artificial Membrane ([2]; 128 μM (64.70 μg/mL)): 120.9%; concentration at which calcein was still confirmed to elute ([2]; virus composition artificial membrane): 0.51 µg/mL; Calcein Efflux Rate (%) Bacterial Composition Artificial Membrane ([3]; 1 μM (0.51 μg/mL)): −2.7%; Calcein Efflux Rate (%) Bacterial Composition Artificial Membrane ([3]; 2 μM (1.01 μg/mL)): 2.8%; Calcein Efflux Rate (%) Bacterial Composition Artificial Membrane ([3]; 4 μM (2.02 μg/mL)): 11.5%; Calcein Efflux Rate (%) Bacterial Composition Artificial Membrane ([3]; 8 μM (4.04 μg/mL)): 54.0%; Calcein Efflux Rate (%) Bacterial Composition Artificial Membrane ([3]; 16 μM (8.09 μg/mL)): 91.9%; Calcein Efflux Rate (%) Bacterial Composition Artificial Membrane ([3]; 32 μM (16.17 μg/mL)): 95.1%; Calcein Efflux Rate (%) Bacterial Composition Artificial Membrane ([3]; 64 μM (32.35 μg/mL)): 92.9%; Calcein Efflux Rate (%) Bacterial Composition Artificial Membrane ([3]; 128 μM (64.70 μg/mL)): 104.5%; concentration at which calcein was still found to elute ([3]; bacterial composition artificial membrane): 1.01 µg/mL; hemolytic activity ([4]; 0.028 %): 11.7%; hemolytic activity ([4]; 0.056 %): 30.2%
[H]/N=C(\N/C(=N/[H])NCCCCCCNC(=N)NC(=N)Nc1ccc(Cl)cc1)Nc1ccc(Cl)cc1 [chlorhexidine gluconate] | 12.7 | could not be calculated | – | – | – | – | – | – | – | – | – | hemolytic activity ([4]; 0.05 %): 9.3%; hemolytic activity ([4]; 0.1 %): 75.8%
OC(Cn1cncn1)(Cn1cncn1)c1ccc(F)cc1F [fluconazole] | – | – | 0.25 (≈ 0.816 µM) | – | – | – | – | – | – | – | – | –
CCn1cc(C(=O)O)c(=O)c2cc(F)c(N3CCNCC3)cc21 [Norfloxacin, norfloxacin] | – | – | – | 2 (≈ 6.26 µM) | 4 (≈ 12.5 µM) | ≥ 64 | ≥ 64 | 2 (≈ 6.26 µM) | 16 (≈ 50.1 µM) | 8 (≈ 25.1 µM) | 16 (≈ 50.1 µM) | –
